The assay deals with T1, SF-PhoQc (Shigella flexneri, UniProt Q83RR1).
T1 construct: The amplified DNA segment encodes PhoQ HK amino acids 251–486; made in house; host or cells: E. coli JM109
The assay is described as follows: Pyrophosphate Reagent coupled enzymatic activity assay of SF-PhoQc. It counts as biochemical, S. flexneri 2a 301. As to conditions: for decrease of SF-PhoQc catalyzed consumption of ATP: Pyrophosphate Reagent. The method, then:
The enzymatic activity of SF-PhoQc was determined using the Pyrophosphate Reagent, in which ATP initiates the reaction and ADP generated by ATP is accompanied by the reduction of NADH to NAD^+. The rate of NADH reduction to NAD^+ is detected by a change in absorbance readings at 340 nm. The activity of SF-PhoQc is measured by detecting a decrease in NADH at A340. Recombinant SF-PhoQc (25 µmol/L) was added to initiate the reaction, and the A340 value was recorded by SoftMax vision 4.8 each minute for 30 minutes. The A340 value reduced from 1.47 to 0.65 in the presence of SF-PhoQc (Figure 2).
Figure 2 The activity of recombinant SF-PhoQc. The activity of SF-PhoQc from the Pyrophosphate Reagent was shown. All assays were conducted in a 96-well microplate spectrophotometer. The assay mixture (total volume was 200 µl) contained 25 mmol/L KCl, 2.5 mmol/L MgCl2, 2 mmol/L ATP, 1 mmol/L phosphoendpyruvate, 0.35 mmol/L NADH, 1.5 U/ml PK, 1.25 U/ml LDH and 50 mmol/L Tris-Cl (pH 8.0). Protein SF-PhoQc was added to a final concentration of 25 µmol/L to start the reaction. After SF-PhoQc was added, the A340 value was recorded by SoftMax vision 4.8 every minute for 30 minutes.
The enzymatic activity of SF-PhoQc was measured using both a Pyrophosphate Reagent (Sigma-Aldrich, MO, USA) and a Luminescent Kinase Assay (Promega, WI, USA). The Pyrophosphate Reagent was performed to confirm the inhibitory activities of the effective potential PhoQ inhibitors in the bioinformatics approach. All reactions were carried out in solid black, flat-bottomed 96-well plates. The Pyrophosphate Reagent was performed at 28°C by monitoring the decrease of NADH by a decrease in absorbance readings at 340 nm (ε340 = 6180 M^−1·cm^−1) in the presence of ATP. The final reaction mixture for the Pyrophosphate Reagent contained 25 µmol/L purified SF-PhoQc, 25 mmol/L KCl, 2.5 mmol/L MgCl2, 2 mmol/L ATP, 1 mmol/L phosphoendpyruvate, 0.35 mmol/L NADH, 1.5 U/ml PK, 1.25 U/ml LDH and 50 mmol/L Tris-Cl (pH 8.0). The enzyme activity was determined in the presence of various concentrations of potential PhoQ inhibitors […] to investigate dose-dependent inhibition effects. The A340 value was recorded by SoftMax vision 4.8 every minute, for 30 minutes. The rate of SF-PhoQc enzymatic activity inhibition by a compound was calculated by the following formula: [drawing 1]
Rp (Ratio of Phosphorylation) was defined as the ratio of the decrease activity of SF-PhoQc treated with compound vs the activity of SF-PhoQc treated without compounds. Rp was stand for the percentage of decrease activity of SF-PhoQc.
IC50(the concentration of inhibition of 50%)values of potential PhoQ inhibitors were obtained by fitting the data to a sigmoid dose–response equation using Origin 7.0 software (OriginLab, Northampton, USA).

T1 sequence (Q83RR1 251-486): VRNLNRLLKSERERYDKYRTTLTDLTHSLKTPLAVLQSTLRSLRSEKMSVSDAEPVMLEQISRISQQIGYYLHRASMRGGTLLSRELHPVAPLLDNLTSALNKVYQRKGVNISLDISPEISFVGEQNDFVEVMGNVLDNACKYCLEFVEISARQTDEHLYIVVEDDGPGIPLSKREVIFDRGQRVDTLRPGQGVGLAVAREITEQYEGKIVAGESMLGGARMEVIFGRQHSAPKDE

`O=C(Nc1ccc(C2(c3cccc(NC(=O)c4cccc5ccccc45)c3)c3ccccc3C(=O)c3ccccc32)cc1)c1ccc2ccccc2c1` [Compound 1]: half-maximal inhibition (IC50) was put at 12 ± 3.91 µM and the “decrease of SF-PhoQc catalyzed consumption of ATP” value (from here on “decrease”) is reported as 100%.

For `CCOc1ccccc1-c1cc(C(=O)N/N=C/c2ccc(OCc3ccccc3)c(OC)c2)c2ccccc2n1` [Compound 2], half-maximal inhibition (IC50) was put at 57 ± 1.04 µM and the “decrease” value amounted to 82.3%.

With `O=C(O)c1ccc(Cl)c(-c2ccc(/C=N/NC(=O)c3ccc(Br)cc3)o2)c1` [Compound 3], the 50% inhibitory concentration (IC50) – broadly, the concentration that gives 50% inhibition – worked out at 27.8 ± 10.7 µM and the “decrease” value is 67.1%.

With `O=C(O)c1cc(-c2ccc(-c3ccccc3Cl)o2)nc2ccc3ccccc3c12` [Compound 4], the 50% inhibitory concentration (IC50) turned out to be 27.8 ± 5.59 µM and the “decrease” value amounted to 65.8%.

The values are drawn from publication PMC3154276, “The Effect of the Potential PhoQ Histidine Kinase Inhibitors on Shigella flexneri Virulence” (PLoS ONE, 2011).
